Reference: patent publication US9012481B2, “Benzoarylureido compounds, and composition for prevention or treatment of neurodegenerative brain disease containing the same” (Korea Institute of Science and Technology, priority 2009, dated 2015)

What was measured:
[1] = system: tumor necrosis factor-alpha; test: LPS-induced tumor necrosis factor-alpha in brain and serum of C57BL/6 mice; assay type: in vivo; details: oral KHG25967 10 mg/kg or 20 mg/kg every day for 2 weeks, then LPS 10 mg/kg into brain, 6 hours
Method: (§1) The animal experiment was performed using C57BL/6 mice ([…], 12-14 weeks old, Harlan Sprague Dawley inc, Indianapolis, Ind., USA) by stereotaxis. The intracerebroventricular (ICV) injection was according to the intracerebroventricular injection system described in Craft et al., 2004b. The mice were grown in an accommodation for SPF (specific pathogen free) under 12 hours light/12 hours dark repeat, and supplied with water and feed as recommended by the accommodation for SPF. The study was reviewed and approved by the Institutional Animal Care and Use Committee (IACUC) of Asan Institute for Life Sciences, Asan Medical Center, which abides by the Institute of Laboratory Animal Resources (ILAR) guide.
(§2) The effect of KHG25967 on the change of pro-inflammatory cytokines was examined in vivo using 12-14 week old C57BL/6 mice. The control group was administered with PBS only for 2 weeks and then, further treated with PBS for 6 hours. The LPS group was administered with PBS only for 2 weeks and then, 10 mg/kg of LPS was administered into brain using streotaxis. The KHG25967 treated group was administered with 10 mg/kg or 20 mg/kg of KHG25967 every day for 2 weeks, and then, 10 mg/kg of LPS was administered into brain using streotaxis. […] The changes in the level of pro-inflammatory cytokines (interleukin-1beta and tumor necrosis factor-alpha) in the separated blood and brain were measured.

[2] = system: BV-2 cells; test: Microscope analysis of cell shape, beta-amyloid treated BV-2 cells; assay type: cell-based; details: 50 nM KHG25967 for 24 hours after 50 μM beta-amyloid for 2 hours
Method: BV-2 microglia cells (allotted from Pharmacology Division of Ajou University) were cultivated in DMEM (Dulbecco's Modified Eagle's Medium) supplemented with 5% fetal bovine serum (Invitrogen, Carlsbad, Calif., USA), sou/Ml penicillin (Invitrogen, Carlsbad, Calif., USA), and 50 μg/Ml streptomycin (Invitrogen, Carlsbad, Calif., USA) under the atmosphere condition with 5% CO2 and 95% air at 37° C. The medium was replaced once a day, the cells were plate-cultured in a density according to the scale of each experiment.
BV-2 cells were pre-treated with 50 μM of beta-amyloid, and 50 nM of KHG25967 compound was added to the beta-amyloid treated cells for 24 hours. For microscope analysis, BV-2 cells were used in 6-well plate at the density of 5×10^5 cells/well, for MTT analysis, BV-2 cells were used in 96-well plate at the density of 5×10^4 cells/well.
The obtained prevention effects of KHG25967 compound on toxicity induced by beta-amyloid in BV-2 cells were FIGS. 1A and 1b.

[3] = system: interleukin-1beta; test: LPS-induced interleukin-1beta in brain and serum of C57BL/6 mice; assay type: in vivo; details: oral KHG25967 10 mg/kg or 20 mg/kg every day for 2 weeks, then LPS 10 mg/kg into brain, 6 hours
Method: as §1, §2

O=C(O)CNC(=O)Nc1nc2ccccc2s1 [KHG25967, 2-(3-benzo[d]thiazole-2-ylureido)acetic acid]
level of tumor necrosis factor-alpha in blood (serum, FIG. 4D) [1]: no specific difference | decrease of tumor necrosis factor-alpha level in brain (FIG. 4B) ([1]; compared with LPS only as 100%): 42% | morphological characteristics of damaged cells (FIG. 1A) [2]: alleviated | level of interleukin-1beta in blood (serum, FIG. 4C) [3]: no specific difference | decrease of interleukin-1beta level in brain (FIG. 4A) ([3]; compared with LPS only as 100%): 55%
